“Also recorded” adds a separate entry of the source.
What was measured:
[1] = test system: USA300 methicillin-resistant Staphylococcus aureus (MRSA); type: in vivo, C57Bl/6J mice; conditions: for bacterial counts (punch biopsies) / dermonecrosis: topical ointment daily, 0.2 mg drug; for dermonecrosis: first experiment
[2] = Intraperitoneal administration in mice; type: in vivo; conditions: 10 mg/ml
[3] = test system: Cy3/Cy5-labelled oligonucleotides; test: Counterscreen assay excluding quenching (Cy3/Cy5 oligonucleotide FRET); conditions: 50 nM of each oligonucleotide
Description: Oligonucleotides were purchased from Integrated DNA Technologies:
In the assay, a 50 nM final concentration of each oligonucleotide was used.
Incubation buffer: 70 mM HEPES-KOH (pH 7.6), 52 mM ammonium acetate, 8 mM magnesium chloride, 30 mM potassium chloride and 2.6% glycerol. A 96-well black, clear bottom microplate was used and read the plate was read using EnVision multilabel plate reader (PerkinElmer) having the same optical filters and parameters as described in Example 2.

[4] = test system: Staphylococcus aureus strains including MRSA; test: Drug susceptibility assay (MIC), Staphylococcus aureus; type: cell-based; conditions: including the MRSA strain
Description: Drug susceptibility assays. Experiments to determine the minimum inhibitory concentration (MIC) of RR-THC for bacterial growth were performed in 96-well microtiter plates. A DMSO stock solution of each compound was added to the first column and serially diluted across the columns of the plate. The last column of the plate contained no drug and served as a no-drug control. Overnight cultures of the bacterium being tested (MRSA ATCC 43300, […], or the aforementioned VRSA/VISA strains) were diluted 1000-fold, and 100 μL of the diluted culture (appr. 2×10^3 cells) was used as an inoculum in each well. MICs were determined by visual inspection looking for a pellet after 18 h incubation at 37° C. and centrifugation.

[5] = Cytotoxicity assay (CellTiter 96 AQueous One Solution); type: cell-based; conditions: African green monkey, Vero cells, read-out: Cytotoxicity CC 50
Description: Cytotoxicity assay. Compounds were tested for cytotoxicity against mammalian Vero cells using the CellTiter 96 AQueous One Solution Assay kit (Promega). Vero cells were seeded in 96-well plates at a density of 2×10^4 cells per well, and the plates were incubated for 4 h at 37° C. to allow attachments of the Vero cells. Chemical compounds being tested were then added to the wells starting from a final concentration of 50 μg/mL and making 12 1:2 dilutions. Cells were incubated for 72 h at 37° C., after which 20 μL of freshly prepared MTS:PMS reagents was added to each well. The plates were incubated for 2 h and then read at an absorbance of 490 nm.

[6] = test system: ternary complex between Cy5-EF-Tu:GTP and Cy3-Phe-tRNAPhe; test: EF-Tu:tRNA FRET assay (qHTS and secondary FRET assay); type: biochemical, E. coli; conditions: online and offline LOPAC testing
Description: Upon formation of functional ternary complex between Cy5-EF-Tu:GTP and Cy3-Phe-tRNAPhe, fluorescence energy transfer (FRET) occurs between Cy3 and Cy5 fluorophores located within Förster radius (~17 Å) when Cy3 is excited at 532 nm, and as a result the complex emits light at 665 nm. Presence of inhibitors of the ternary complex prevents complex from forming, thereby reducing fluorescence intensity at 665 nm.
Inhibitors of EF-Tu:tRNA translation were identified using this in vitro FRET system. Quantitative high throughput screening (qHTS) was performed on the LOPAC library containing 1,280 chemicals to identify potential leads for antibiotic development. […]
Equipment: EnVision 2104 Multilabel Plate Reader (PerkinElmer) with excitation optical filter 2100-5050 Bodipy TMR FR 531 nm and emission optical filter 2100-5770 Cy5 685 nm. […]
All solutions were prepared fresh in assay buffer consisting of 70 mM HEPES-KOH (pH7.6), 52 mM ammonium acetate, 8 mM magnesium chloride, 30 mM potassium chloride, and 2.6% glycerol. […] FRET was then detected using 1) a ViewLux high-throughput microplate imager (PerkinElmer) equipped with Ex: 525/20 and Em: 671/8 filters; or 2) an Envision Multimode plate reader (PerkinElmer) equipped with Ex: 530/25 and Em: 665 filters. Assay performance, as calculated by Z′ factor as described by Zhang et al (J Biomol Screen, 1999), was favorable for the Envision plate reader. […]

[7] = test system: E. coli strains; test: Bacterial growth assay, E. coli; type: cell-based, Escherichia coli
Description: (§1) The culture was diluted again 1/500 in 1 ml of fresh media with presence of increasing concentrations of tested compound or 1% DMSO as a control.

[8] = test system: Gram-negative bacteria; test: Drug susceptibility assay (MIC), Gram-negative bacteria; type: cell-based
[9] = test system: E. coli DH5α; test: Zone inhibition assay (ZIA), E. coli
[10] = test system: Pseudomonas aeruginosa; test: Bacterial growth assay, Pseudomonas aeruginosa; type: cell-based
Description: as §1

[11] = test system: mycobacteria; test: Drug susceptibility assay (MIC), mycobacteria; type: cell-based
[12] = test system: B. subtilis 1S-75; test: Zone inhibition assay (ZIA), B. subtilis; type: cell-based, Bacillus subtilis
[13] = test system: B. subtilis IS-75; test: Bacterial growth / viable count assay, B. subtilis; type: cell-based, Bacillus subtilis
Description: as §1

Compound | bacterial counts (punch biopsies) [1] | dermonecrosis [1] | toxicity upon intraperitoneal administration [2] | change of FRET in quenching counterscreen [3] | sensitivity in MIC assay, three Staphylococcus aureus strains [4] | CC50 at 72 h [5] | effect on Cy5-EF-Tu acceptor fluorescence emission in the FRET assay [6] | inhibition of bacterial growth, E. coli strains [7] | sensitivity in MIC assay, Gram-negative bacteria [8] | zone inhibition result in words, E. coli [9] | inhibition of bacterial growth, Pseudomonas aeruginosa [10] | sensitivity in MIC assay, mycobacteria [11] | zone inhibition result in words, gram-positive bacteria (B. subtilis) [12] | colony formation of B. subtilis on agar plate ([13]; 10 μM added to the medium in an agar plate) | inhibition at 5 µM ([13]; Bacillus subtilis, IS75, 5 μM, cells grown in test tubes) | dermonecrosis, repetition of the experiment ([1]; compared to controls but not compared to the mupirocin treated group)
C/C(=C\C(=O)OCCCCCCCCC(=O)O)C[C@@H]1OC[C@H](C[C@@H]2O[C@H]2[C@@H](C)[C@H](C)O)[C@@H](O)[C@H]1O [mupirocin, reference compound] | trend to reduction | no decrease |  |  |  |  |  |  |  |  |  |  |  |  |  | 
CC[C@@H]1Cc2cc(O)ccc2C2=C1c1ccc(O)cc1C[C@H]2CC [RR-THC, (R,R)-tetrahydrochrysene] | no difference apparent | inhibiting dermonecrosis; also recorded: trend to reduced dermonecrosis | a level of toxicity observed | did not significantly change FRET | highly sensitive | > 50 µM | significantly diminished; also recorded: effectively decreased Cy5-EF-Tu acceptor fluorescence emission; also recorded: highly active in both methods | No inhibition | not sensitive | did not inhibit | No inhibition | not sensitive | clear zone indicative of inhibition of cell growth | colonies did not form | ~97% | statistically significant decrease in dermonecrosis

Reference: patent US20260256712A1, “COMPOUNDS FOR INHIBITING GRAM-POSITIVE BACTERIA” (priority 2022, published 2026)
